Columns and labels:
mongrel adult dogs [1] = assay: Effects on arterial mean blood pressure (thoractomized anesthetized dogs, i.v.); assay type: in vivo, dog
Method: (§1) All experiments were conducted on male and female thoractomized mongrel adult dogs weighing about 10 Kg under anesthesia with pentobarbital sodium.
(§2) Arterial blood pressure was measured by pressure transducer (Nippon Koden MPU-0.5) connected with the cannula inserted from exposed carotid artery into aorta. Aortic blood flow was determined by means of electromagnetic flow meter (Nippon Koden MF-5) mounted at an origin of aorta. Coronary sinus out flow and coronary sinus oxygen tension were assessed by means of electromagnetic flow meter (Nippon Koden MF-5) and Po2 Macro electrode (Beckmann Moder 160-C), respectively, using Morawitz cannulization technique. Heart rate was measured by cardiotachometer (Nippon Koden RT-2) synchronized with systolic blood pressure of aorta.

mongrel adult dogs [2] = assay: Effects on aortic blood flow (thoractomized anesthetized dogs, i.v.); assay type: in vivo, dog
Method: as §1, §2

mongrel adult dogs [3] = assay: Effects on coronary sinus out flow (thoractomized anesthetized dogs, i.v.); assay type: in vivo, dog
Method: as §1, §2

mongrel adult dogs [4] = assay: Effects on coronary sinus oxygen tension (thoractomized anesthetized dogs, i.v.); assay type: in vivo, dog
Method: as §1, §2

mongrel adult dogs [5] = assay: Effects on heart rate (thoractomized anesthetized dogs, i.v.); assay type: in vivo, dog
Method: as §1, §2

mongrel adult dogs [6] = assay: Effects on the work done by the left ventricle (thoractomized anesthetized dogs, i.v.); assay type: in vivo, dog
Method: as §1, §2
The work done by the left ventricle is calculated according to the following equation: […]

[7] = Acute toxicity (LD50; per os, mice); assay type: in vivo; settings: mouse, in vivo, po, dd-0train male mice
Method: (§3) 7. Acute Toxicity (See Table 7) Acute toxicity (LD50; per os, mice) was measured in dd-0train male mice.

dd-0train male mice = assay: Acute toxicity (LD50; per os, mice); assay type: in vivo
Method: as §3

Structure (SMILES): CCOC(=O)N1CCN(C(C#N)c2ccc(OC)c(OC)c2)CC1 (stereo not drawn) [Compound B-01, N-(α-cyano-3,4-dimethoxybenzyl)-N'-ethoxycarbonyl piperazine]
- Changes(%) of basal values, arterial mean blood pressure (mongrel adult dogs [1]; i.v. 2.0 mg/Kg, 15 min): -4.5%
- Changes(%) of basal values, arterial mean blood pressure (mongrel adult dogs [1]; i.v. 2.0 mg/Kg, 25 min): -4.0%
- Changes(%) of basal values, arterial mean blood pressure (mongrel adult dogs [1]; i.v. 6.0 mg/Kg, 15 min): -6.3%
- Changes(%) of basal values, arterial mean blood pressure (mongrel adult dogs [1]; i.v. 6.0 mg/Kg, 25 min): -3.0%
- Changes(%) of basal values, arterial mean blood pressure (mongrel adult dogs [1]; i.v. 20.0 mg/Kg, 15 min): -17.7%
- Changes(%) of basal values, arterial mean blood pressure (mongrel adult dogs [1]; i.v. 20.0 mg/Kg, 25 min): -17.4%
- Duration of hypotensive effect (in words) (mongrel adult dogs [1]; i.v., dogs): longer duration
- Effect on arterial mean blood pressure (in words) (mongrel adult dogs [1]; i.v., dogs): hypotensive effects
- Changes(%) of basal values, aortic blood flow (mongrel adult dogs [2]; i.v. 2.0 mg/Kg, 15 min): +2.0%
- Changes(%) of basal values, aortic blood flow (mongrel adult dogs [2]; i.v. 2.0 mg/Kg, 25 min): +1.0%
- Changes(%) of basal values, aortic blood flow (mongrel adult dogs [2]; i.v. 6.0 mg/Kg, 15 min): +0.1%
- Changes(%) of basal values, aortic blood flow (mongrel adult dogs [2]; i.v. 6.0 mg/Kg, 25 min): +1.0%
- Changes(%) of basal values, aortic blood flow (mongrel adult dogs [2]; i.v. 20.0 mg/Kg, 15 min): +3.6%
- Changes(%) of basal values, aortic blood flow (mongrel adult dogs [2]; i.v. 20.0 mg/Kg, 25 min): +1.6%
- Increase of aortic blood flow (mongrel adult dogs [2]; i.v., dogs): 2-8%
- Later effect on aortic blood flow / its duration (in words) (mongrel adult dogs [2]; i.v., dogs): longer duration
- Effect on aortic blood flow immediately after administration (in words) (mongrel adult dogs [2]; i.v., dogs, immediately): no decrease in blood flow immediately after medication
- Changes(%) of basal values, coronery sinus out flow (mongrel adult dogs [3]; i.v. 2.0 mg/Kg, 15 min): +4.4%
- Changes(%) of basal values, coronery sinus out flow (mongrel adult dogs [3]; i.v. 2.0 mg/Kg, 25 min): +3.0%
- Changes(%) of basal values, coronery sinus out flow (mongrel adult dogs [3]; i.v. 6.0 mg/Kg, 15 min): +10.9%
- Changes(%) of basal values, coronery sinus out flow (mongrel adult dogs [3]; i.v. 6.0 mg/Kg, 25 min): +8.0%
- Changes(%) of basal values, coronery sinus out flow (mongrel adult dogs [3]; i.v. 20.0 mg/Kg, 15 min): +38.2%
- Changes(%) of basal values, coronery sinus out flow (mongrel adult dogs [3]; i.v. 20.0 mg/Kg, 25 min): +20.3%
- Dose dependence and duration of effect on coronary sinus out flow (in words) (mongrel adult dogs [3]; i.v., dogs): proportioned to doses and of longer duration
- Effect on coronary sinus out flow (in words) (mongrel adult dogs [3]; i.v., dogs): marked increasing effect on coronary sinus out flow
- Changes(%) of basal values, coronary sinus oxygen tension (mongrel adult dogs [4]; i.v. 2.0 mg/Kg, 15 min): +12.0%
- Changes(%) of basal values, coronary sinus oxygen tension (mongrel adult dogs [4]; i.v. 2.0 mg/Kg, 25 min): +12.5%
- Changes(%) of basal values, coronary sinus oxygen tension (mongrel adult dogs [4]; i.v. 6.0 mg/Kg, 10 min): +3.0%
- Changes(%) of basal values, coronary sinus oxygen tension (mongrel adult dogs [4]; i.v. 6.0 mg/Kg, 15 min): +25.5%
- Changes(%) of basal values, coronary sinus oxygen tension (mongrel adult dogs [4]; i.v. 6.0 mg/Kg, 25 min): +16.2%
- Changes(%) of basal values, coronary sinus oxygen tension (mongrel adult dogs [4]; i.v. 20.0 mg/Kg, 5 min): +89.0%
- Changes(%) of basal values, coronary sinus oxygen tension (mongrel adult dogs [4]; i.v. 20.0 mg/Kg, 15 min): +90.1%
- Changes(%) of basal values, coronary sinus oxygen tension (mongrel adult dogs [4]; i.v. 20.0 mg/Kg, 25 min): +63.0%
- Duration of effect on coronary sinus oxygen tension (in words) (mongrel adult dogs [4]; i.v., dogs): proportioned to an increase in coronary sinus out flow and of longer duration
- Effect on coronary sinus oxygen tension (in words) (mongrel adult dogs [4]; i.v., dogs): significant increase in coronary sinus oxygen tension
- Changes(%) of basal values, heart rate (mongrel adult dogs [5]; i.v. 2.0 mg/Kg, 15 min): 0%
- Changes(%) of basal values, heart rate (mongrel adult dogs [5]; i.v. 2.0 mg/Kg, 25 min): 0%
- Changes(%) of basal values, heart rate (mongrel adult dogs [5]; i.v. 6.0 mg/Kg, 15 min): +0.6%
- Changes(%) of basal values, heart rate (mongrel adult dogs [5]; i.v. 6.0 mg/Kg, 25 min): +1.0%
- Changes(%) of basal values, heart rate (mongrel adult dogs [5]; i.v. 20.0 mg/Kg, 15 min): -2.6%
- Changes(%) of basal values, heart rate (mongrel adult dogs [5]; i.v. 20.0 mg/Kg, 25 min): -6.3%
- Effect on heart rate (in words) (mongrel adult dogs [5]; i.v., dogs): sight negative chromotropic effect
- Changes(%) of basal values, work of left ventricle (mongrel adult dogs [6]; i.v. 2.0 mg/Kg, 1 min): +2.7%
- Changes(%) of basal values, work of left ventricle (mongrel adult dogs [6]; i.v. 2.0 mg/Kg, 5 min): +0.8%
- Changes(%) of basal values, work of left ventricle (mongrel adult dogs [6]; i.v. 2.0 mg/Kg, 10 min): -2.0%
- Changes(%) of basal values, work of left ventricle (mongrel adult dogs [6]; i.v. 2.0 mg/Kg, 15 min): -2.6%
- Changes(%) of basal values, work of left ventricle (mongrel adult dogs [6]; i.v. 2.0 mg/Kg, 20 min): -2.9%
- Changes(%) of basal values, work of left ventricle (mongrel adult dogs [6]; i.v. 2.0 mg/Kg, 25 min): -3.1%
- Changes(%) of basal values, work of left ventricle (mongrel adult dogs [6]; i.v. 2.0 mg/Kg, 30 min): -3.6%
- Changes(%) of basal values, work of left ventricle (mongrel adult dogs [6]; i.v. 2.0 mg/Kg, imm.): -3.6%
- Changes(%) of basal values, work of left ventricle (mongrel adult dogs [6]; i.v. 6.0 mg/Kg, 1 min): +2.3%
- Changes(%) of basal values, work of left ventricle (mongrel adult dogs [6]; i.v. 6.0 mg/Kg, 5 min): -1.7%
- Changes(%) of basal values, work of left ventricle (mongrel adult dogs [6]; i.v. 6.0 mg/Kg, 10 min): -5.9%
- Changes(%) of basal values, work of left ventricle (mongrel adult dogs [6]; i.v. 6.0 mg/Kg, 15 min): -8.3%
- Changes(%) of basal values, work of left ventricle (mongrel adult dogs [6]; i.v. 6.0 mg/Kg, 20 min): -5.3%
- Changes(%) of basal values, work of left ventricle (mongrel adult dogs [6]; i.v. 6.0 mg/Kg, 25 min): -2.0%
- Changes(%) of basal values, work of left ventricle (mongrel adult dogs [6]; i.v. 6.0 mg/Kg, 30 min): -2.8%
- Changes(%) of basal values, work of left ventricle (mongrel adult dogs [6]; i.v. 6.0 mg/Kg, imm.): -0.1%
- Changes(%) of basal values, work of left ventricle (mongrel adult dogs [6]; i.v. 20.0 mg/Kg, 1 min): -10.9%
- Changes(%) of basal values, work of left ventricle (mongrel adult dogs [6]; i.v. 20.0 mg/Kg, 5 min): -8.4%
- Changes(%) of basal values, work of left ventricle (mongrel adult dogs [6]; i.v. 20.0 mg/Kg, 10 min): -9.2%
- Changes(%) of basal values, work of left ventricle (mongrel adult dogs [6]; i.v. 20.0 mg/Kg, 15 min): -14.8%
- Changes(%) of basal values, work of left ventricle (mongrel adult dogs [6]; i.v. 20.0 mg/Kg, 20 min): -14.3%
- Changes(%) of basal values, work of left ventricle (mongrel adult dogs [6]; i.v. 20.0 mg/Kg, 25 min): -16.1%
- Changes(%) of basal values, work of left ventricle (mongrel adult dogs [6]; i.v. 20.0 mg/Kg, 30 min): -14.1%
- Changes(%) of basal values, work of left ventricle (mongrel adult dogs [6]; i.v. 20.0 mg/Kg, imm.): -8.5%
- Duration of effect on the work of the left ventricle (in words) (mongrel adult dogs [6]; i.v., dogs): longer duration
- Effect on the work of the left ventricle (in words) (mongrel adult dogs [6]; i.v., dogs): decrease in the work of the left ventricle
- LD50 [7]: 2200 mg/kg
- LD50 (dd-0train male mice; dd-0train male mice): 2200 mg/kg
- Acute toxicity relative to Vastarel F (in words) (dd-0train male mice; mice): significantly less toxicity than that of Vastarel F
